Data on two compounds can be found in paper PMC7696755 (2020).

The structures appear in SMILES notation.

Assay [1] has as its system AT-DNA (DNA, duplex) TATATATATATATATATATATATATATATATATATATATA
As to the kind of experiment: UV/Vis absorption titration (302 nm, hypochromism). The settings on record: 137 mM NaCl, 2.7 mM KCl, PBS (10 mM phosphate), pH 7.4, room temperature, per base pair, 15 µM 8-MOP, intercalation, before irradiation.

Assay [2] has the same test system. Kind of assay: UV/Vis absorption titration (hypochromism). The note with it: 137 mM NaCl, 2.7 mM KCl, PBS (10 mM phosphate), pH 7.4, room temperature, per base pair, intercalation, data not shown.

In turn, `COc1c2occc2cc2ccc(=O)oc12` returned a KD in assay [1] of 1.1 mM.
On to `COc1c2ccoc2cc2oc(=O)ccc12`, for which the KD in assay [2] was found to be 180 µM.
